Source: paper PMC4257840 (Journal of Medicinal Chemistry, 2014)

Key:
Type in all cases: biochemical
[1] = biological target: T1, angiotensin converting enzyme from rabbit lung (Oryctolagus cuniculus, UniProt P12822); experiment: Protease counter-screening: Angiotensin converting enzyme
T1 construct: rabbit lung; from tissue; host or cells: rabbit lung
Procedure: (§1) Appendix 7. Protease Counter -Screening
(§2) Protease counter-screeni ng was performed using the methods described below. Initial screening was conducted in duplicate using a single test substance concentration of 10 µ M .
(§3) Additional assays were conducted in replicate for selected pairin gs of test s ubstance and enz yme in order to enable the determination of IC50 values using conventional procedures.
(§4) Determination of K i was made using the Batch K i program (Biokin Ltd, Pullman, WA) to derive values from the Morrison equation: […]
MMP-9: Human recombinant MMP-9 proenz yme ex pressed in mammalian cells was activated with APMA for 60 min at 37 °C. […] The amount of MCA-P LG formed was read spectrofluorimetricall y at 340 nm/400 nm.
ADAM-17/TACE: Human recombinant ADAM-17 expressed in Sf21 insect cells was used as enz yme sour ce. […] T he amount of MCA-P LAQA formed w as read spectro fluorimetricall y at 340 nm/400 nm.
Angiotensin converting enzyme: Test compound or vehicle was pre- incubated in modified HEPES buffer pH 7.5 for 15 min at 25 °C with 31 mU/mL angiotensin converting enz yme from rabbit lung. […] The amount of substrate remaining was read spectrophotometricall y at 340 nm and used to deri ve the extent of reaction and its inhibition. […]

Cathepsin D = biological target: T2, Cathepsin D (Homo sapiens, UniProt P07339); experiment: Protease counter-screening: Cathepsin D
T2 construct: purified from human li ver; from tissue; host or cells: human liver
T2 sequence (P07339 65-412): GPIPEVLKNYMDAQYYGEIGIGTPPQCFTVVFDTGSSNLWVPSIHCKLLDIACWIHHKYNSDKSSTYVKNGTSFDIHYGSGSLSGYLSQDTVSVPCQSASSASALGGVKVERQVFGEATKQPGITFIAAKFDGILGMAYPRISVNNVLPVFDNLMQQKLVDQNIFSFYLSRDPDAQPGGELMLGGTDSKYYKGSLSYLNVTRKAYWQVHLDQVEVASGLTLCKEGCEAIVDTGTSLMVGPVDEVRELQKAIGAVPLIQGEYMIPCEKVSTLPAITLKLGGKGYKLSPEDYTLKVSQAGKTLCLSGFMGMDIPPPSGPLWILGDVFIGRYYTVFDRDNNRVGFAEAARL
Procedure: as §1, §2, §3, §4
(§5) Where [E ] is the active enz yme concentration, Kiapp is the apparent inhibition const ant, v 0 is the control velocit y in the absence of inhibitors, vb is the background velocity, v is the initial reaction velocit y in the presence of inhibitor, and I is the inhibitor concentration.Thence:
Where [S ] is the substrate concentration and KM is the Michealis constant.
Caspase 1: Activity against human recombinant caspase 1 expressed in E. coli was tested using Ac-YVAD- AMC as the substrate. Test compound or vehicle was pre- incubated with 600 […]
Cathep sin D: Tests were performed using enz ym e purified from human li ver. Test compound or vehicle was pre- incubated with 190 mU/mL enz yme in modified acetate buffer pH 4.0 for 15 min at 37 °C. […]
The amount of MCA-P LG formed was measured spectrofluorimetricall y at 340 nm/400 nm. […]

[2] = biological target: T3, human recombinant caspase 3 (Homo sapiens, UniProt P42574); experiment: Protease counter-screening: Caspase 3
T3 construct: host or cells: E. coli
T3 sequence (P42574 29-175 limits assumed): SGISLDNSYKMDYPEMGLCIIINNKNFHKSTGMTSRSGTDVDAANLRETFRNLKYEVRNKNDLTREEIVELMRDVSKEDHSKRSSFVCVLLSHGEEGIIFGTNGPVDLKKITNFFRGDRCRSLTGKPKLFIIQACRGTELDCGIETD
T3 sequence (P42574 176-277 limits assumed): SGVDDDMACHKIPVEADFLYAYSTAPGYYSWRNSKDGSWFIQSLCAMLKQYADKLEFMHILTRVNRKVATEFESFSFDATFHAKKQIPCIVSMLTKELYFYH
Procedure: as §1, §2, §3, §4, §5
Where [S ] is the substrate concentration and KM is the Michealis constant. […]
by addition of 50 µM Ac-DEVD-AMC for another 60 min incubation period. The amount of AMC formed was determined fluorimetricall y (excitation 360 nm/emission 465 nm). […]
by addition of 25 µM Ac-LEH D-A FC for another 60 min incubation period. The amount of amino-4- trifluorometh ylcoumarin (AFC) formed determined fluorimetrically (400nm/ 510nm).
Cathepsin C: Cathepsin C from bovine spleen was used as the source of enz yme. […] T he amount of AMC product formed was read spectrofluorimetrically

T1 sequence (P12822 34-1310): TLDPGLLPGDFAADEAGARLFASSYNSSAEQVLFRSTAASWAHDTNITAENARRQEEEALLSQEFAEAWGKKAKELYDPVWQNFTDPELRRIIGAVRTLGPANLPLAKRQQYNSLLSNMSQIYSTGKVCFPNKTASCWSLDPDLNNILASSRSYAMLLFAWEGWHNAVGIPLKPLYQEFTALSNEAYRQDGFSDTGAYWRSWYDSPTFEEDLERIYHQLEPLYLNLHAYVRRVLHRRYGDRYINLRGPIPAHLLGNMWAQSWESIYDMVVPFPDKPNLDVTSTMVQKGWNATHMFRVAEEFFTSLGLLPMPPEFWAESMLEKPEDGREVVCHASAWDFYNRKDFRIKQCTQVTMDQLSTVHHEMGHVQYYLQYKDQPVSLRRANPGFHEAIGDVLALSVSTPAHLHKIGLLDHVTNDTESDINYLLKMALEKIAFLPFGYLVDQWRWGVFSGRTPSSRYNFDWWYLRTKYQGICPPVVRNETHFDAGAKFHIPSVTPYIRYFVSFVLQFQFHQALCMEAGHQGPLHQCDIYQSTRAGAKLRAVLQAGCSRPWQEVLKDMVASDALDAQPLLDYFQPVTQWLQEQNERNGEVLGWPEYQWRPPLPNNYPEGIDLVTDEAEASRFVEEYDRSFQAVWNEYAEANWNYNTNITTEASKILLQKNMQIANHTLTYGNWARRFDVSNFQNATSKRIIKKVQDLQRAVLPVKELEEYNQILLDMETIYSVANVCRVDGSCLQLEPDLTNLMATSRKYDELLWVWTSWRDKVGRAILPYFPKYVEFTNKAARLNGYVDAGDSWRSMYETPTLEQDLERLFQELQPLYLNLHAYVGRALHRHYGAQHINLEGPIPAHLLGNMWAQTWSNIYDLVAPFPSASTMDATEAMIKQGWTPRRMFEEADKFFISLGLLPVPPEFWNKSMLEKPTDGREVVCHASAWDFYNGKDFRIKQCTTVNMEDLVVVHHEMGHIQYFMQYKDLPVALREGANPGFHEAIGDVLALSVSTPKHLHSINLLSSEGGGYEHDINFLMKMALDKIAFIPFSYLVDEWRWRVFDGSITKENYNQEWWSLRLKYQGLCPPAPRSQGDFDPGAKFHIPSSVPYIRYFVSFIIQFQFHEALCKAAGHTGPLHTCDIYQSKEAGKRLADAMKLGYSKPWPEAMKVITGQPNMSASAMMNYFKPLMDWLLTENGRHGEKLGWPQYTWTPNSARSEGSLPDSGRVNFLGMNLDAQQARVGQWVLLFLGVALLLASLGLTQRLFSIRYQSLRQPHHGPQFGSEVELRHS

## CC(C)[C@H](NC(=O)[C@H](C)NC(=O)[C@@H](NC(=O)c1ccccc1)C(C)(C)C)C(=O)C(=O)NCc1ccccc1 [Compound 38, N-{(S)-1-[(S)-1-((S)-1-Benzylaminooxalyl-2-methyl-propylcarbamoyl)-ethylcarbamoyl]-2,2-dimethyl-propyl}-benzamide]
[1]
  inhibition at 10 µM: 0%
Cathepsin D
  inhibition at 10 µM: 2%
[2]
  inhibition at 10 µM: 1%
